# Results: ChEMBL document CHEMBL5291721, “A preclinical secondary pharmacology resource illuminates target-adverse drug reaction associations of marketed drugs” (Nat Commun, 2023)
# How the values were obtained:
# [1] = target: T1, Alpha-2A adrenergic receptor (Homo sapiens, UniProt P08913); format: functional, cell-based
# T1 sequence (P08913 whole entry): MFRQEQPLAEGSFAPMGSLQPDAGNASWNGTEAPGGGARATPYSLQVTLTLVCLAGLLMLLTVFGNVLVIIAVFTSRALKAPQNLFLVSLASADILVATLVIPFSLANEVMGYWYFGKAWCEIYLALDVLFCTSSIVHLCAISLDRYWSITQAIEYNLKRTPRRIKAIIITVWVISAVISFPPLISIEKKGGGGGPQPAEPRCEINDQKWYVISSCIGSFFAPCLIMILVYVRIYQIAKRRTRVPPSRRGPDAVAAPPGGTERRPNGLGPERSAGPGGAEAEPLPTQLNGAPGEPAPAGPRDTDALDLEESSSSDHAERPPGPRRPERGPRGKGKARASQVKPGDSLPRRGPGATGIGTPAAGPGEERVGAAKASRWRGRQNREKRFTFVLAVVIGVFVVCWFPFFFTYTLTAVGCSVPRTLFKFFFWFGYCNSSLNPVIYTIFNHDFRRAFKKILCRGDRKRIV
# Cannabinoid receptor 1 = Cannabinoid receptor 1 (Homo sapiens, UniProt P21554); format: functional, cell-based
# [2] = target: Sodium-dependent dopamine transporter (Homo sapiens, UniProt Q01959)
# [3] = target: Gamma-aminobutyric acid receptor subunit alpha-1 (Rattus norvegicus, UniProt P62813)
# Adenosine receptor A3 = target: T2, Adenosine receptor A3 (Homo sapiens, UniProt P0DMS8)
# T2 sequence (P0DMS8 whole entry): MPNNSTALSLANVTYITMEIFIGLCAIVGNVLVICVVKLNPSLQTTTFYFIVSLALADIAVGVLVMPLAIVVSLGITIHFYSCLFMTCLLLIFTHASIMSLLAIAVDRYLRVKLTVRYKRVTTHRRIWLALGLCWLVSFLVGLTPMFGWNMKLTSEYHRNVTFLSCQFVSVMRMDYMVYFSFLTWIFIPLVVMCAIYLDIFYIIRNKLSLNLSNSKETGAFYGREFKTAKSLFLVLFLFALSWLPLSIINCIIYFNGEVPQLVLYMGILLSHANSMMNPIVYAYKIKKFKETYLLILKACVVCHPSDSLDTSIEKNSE
# [4] = target: T3, Alpha-2C adrenergic receptor (Homo sapiens, UniProt P18825); format: functional
# T3 sequence (P18825 whole entry): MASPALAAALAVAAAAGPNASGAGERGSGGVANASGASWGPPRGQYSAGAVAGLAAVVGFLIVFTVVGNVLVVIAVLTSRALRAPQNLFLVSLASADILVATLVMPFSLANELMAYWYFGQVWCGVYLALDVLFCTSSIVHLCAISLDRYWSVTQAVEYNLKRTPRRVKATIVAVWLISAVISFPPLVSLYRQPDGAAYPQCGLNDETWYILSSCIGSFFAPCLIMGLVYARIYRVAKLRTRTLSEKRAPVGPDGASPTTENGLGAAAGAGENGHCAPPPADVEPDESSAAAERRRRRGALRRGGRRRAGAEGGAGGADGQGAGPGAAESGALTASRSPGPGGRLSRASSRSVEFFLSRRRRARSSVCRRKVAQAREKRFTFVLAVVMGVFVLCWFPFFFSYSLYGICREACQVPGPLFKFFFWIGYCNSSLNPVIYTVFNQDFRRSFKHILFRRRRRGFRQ
# [5] = target: T4, 5-hydroxytryptamine receptor 2B (Homo sapiens, UniProt P41595); format: functional, cell-based
# [6] = target: T4, 5-hydroxytryptamine receptor 2B; format: functional, cell-based; remark: listed apart in the source
# [7] = target: T5, Equilibrative nucleoside transporter 1 (Homo sapiens, UniProt Q99808)
# T5 sequence (Q99808 whole entry): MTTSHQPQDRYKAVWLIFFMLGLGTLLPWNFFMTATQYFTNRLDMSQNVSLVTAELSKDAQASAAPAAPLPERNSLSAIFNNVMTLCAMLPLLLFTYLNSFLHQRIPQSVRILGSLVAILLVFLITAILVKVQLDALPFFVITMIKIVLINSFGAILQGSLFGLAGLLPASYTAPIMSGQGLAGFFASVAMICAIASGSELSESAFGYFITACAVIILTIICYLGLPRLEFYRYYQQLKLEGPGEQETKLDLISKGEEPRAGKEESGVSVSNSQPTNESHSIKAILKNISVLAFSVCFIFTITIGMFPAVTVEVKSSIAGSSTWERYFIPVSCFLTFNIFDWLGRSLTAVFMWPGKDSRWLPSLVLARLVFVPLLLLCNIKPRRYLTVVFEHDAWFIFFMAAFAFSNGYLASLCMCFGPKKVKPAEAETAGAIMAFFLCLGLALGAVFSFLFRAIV
# [8] = target: T6, Gastrin/cholecystokinin type B receptor (Homo sapiens, UniProt P32239)
# T6 sequence (P32239 whole entry): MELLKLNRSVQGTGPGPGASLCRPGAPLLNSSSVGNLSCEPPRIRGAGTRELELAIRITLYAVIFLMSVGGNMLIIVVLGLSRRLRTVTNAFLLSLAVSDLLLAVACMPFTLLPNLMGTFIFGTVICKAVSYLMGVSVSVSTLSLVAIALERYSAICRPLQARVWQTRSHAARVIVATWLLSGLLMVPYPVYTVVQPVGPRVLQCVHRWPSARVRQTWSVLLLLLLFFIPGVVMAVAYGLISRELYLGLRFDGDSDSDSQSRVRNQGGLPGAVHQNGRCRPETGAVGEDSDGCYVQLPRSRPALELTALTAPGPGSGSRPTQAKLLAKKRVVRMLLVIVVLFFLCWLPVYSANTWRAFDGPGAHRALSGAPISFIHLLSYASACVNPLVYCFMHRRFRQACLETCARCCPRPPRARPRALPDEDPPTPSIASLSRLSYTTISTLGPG
# Also: assay procedure not described here.
# Gamma-aminobutyric acid receptor subunit alpha-1, sequence (P62813 whole entry): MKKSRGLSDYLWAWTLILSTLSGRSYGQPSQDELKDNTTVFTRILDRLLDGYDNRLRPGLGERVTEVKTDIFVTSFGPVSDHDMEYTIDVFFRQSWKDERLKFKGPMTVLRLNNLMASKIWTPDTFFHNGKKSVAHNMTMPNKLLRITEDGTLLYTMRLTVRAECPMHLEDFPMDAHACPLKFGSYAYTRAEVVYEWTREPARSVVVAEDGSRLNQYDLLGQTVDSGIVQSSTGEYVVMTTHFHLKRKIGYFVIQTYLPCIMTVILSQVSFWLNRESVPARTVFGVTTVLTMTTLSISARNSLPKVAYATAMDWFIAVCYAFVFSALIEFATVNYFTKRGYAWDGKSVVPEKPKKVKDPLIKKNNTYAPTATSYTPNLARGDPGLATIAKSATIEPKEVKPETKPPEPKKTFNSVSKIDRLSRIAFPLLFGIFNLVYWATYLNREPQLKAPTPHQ
# Sodium-dependent dopamine transporter, sequence (Q01959 whole entry): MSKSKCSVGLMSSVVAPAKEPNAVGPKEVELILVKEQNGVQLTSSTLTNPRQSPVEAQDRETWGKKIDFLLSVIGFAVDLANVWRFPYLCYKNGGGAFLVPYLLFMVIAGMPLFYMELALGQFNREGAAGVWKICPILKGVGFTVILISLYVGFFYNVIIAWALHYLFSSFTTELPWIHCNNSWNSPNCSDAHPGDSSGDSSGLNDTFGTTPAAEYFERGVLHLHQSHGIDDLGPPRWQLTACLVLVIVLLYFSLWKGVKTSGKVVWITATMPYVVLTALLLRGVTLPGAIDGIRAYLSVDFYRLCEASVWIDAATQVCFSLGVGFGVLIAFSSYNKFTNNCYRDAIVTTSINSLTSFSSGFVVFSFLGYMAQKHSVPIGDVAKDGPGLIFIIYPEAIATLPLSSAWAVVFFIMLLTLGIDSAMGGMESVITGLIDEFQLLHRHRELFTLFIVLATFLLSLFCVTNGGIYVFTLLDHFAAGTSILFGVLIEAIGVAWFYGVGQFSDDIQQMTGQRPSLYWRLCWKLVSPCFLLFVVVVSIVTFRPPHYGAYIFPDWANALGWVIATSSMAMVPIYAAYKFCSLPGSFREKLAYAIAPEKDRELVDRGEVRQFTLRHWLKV
# Cannabinoid receptor 1, sequence (P21554 whole entry): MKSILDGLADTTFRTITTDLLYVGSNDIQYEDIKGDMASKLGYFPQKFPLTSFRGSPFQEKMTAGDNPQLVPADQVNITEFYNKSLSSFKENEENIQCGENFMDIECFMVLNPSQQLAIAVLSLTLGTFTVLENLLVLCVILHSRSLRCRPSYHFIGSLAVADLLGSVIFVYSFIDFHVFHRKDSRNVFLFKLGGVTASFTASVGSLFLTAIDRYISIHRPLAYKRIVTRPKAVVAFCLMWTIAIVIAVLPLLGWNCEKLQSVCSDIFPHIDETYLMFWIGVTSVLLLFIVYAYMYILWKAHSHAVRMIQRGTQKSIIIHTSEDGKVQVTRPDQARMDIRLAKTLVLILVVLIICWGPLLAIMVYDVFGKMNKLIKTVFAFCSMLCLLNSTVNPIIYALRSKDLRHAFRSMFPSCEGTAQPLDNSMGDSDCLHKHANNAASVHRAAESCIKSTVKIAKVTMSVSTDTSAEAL
# T4 sequence (P41595 whole entry): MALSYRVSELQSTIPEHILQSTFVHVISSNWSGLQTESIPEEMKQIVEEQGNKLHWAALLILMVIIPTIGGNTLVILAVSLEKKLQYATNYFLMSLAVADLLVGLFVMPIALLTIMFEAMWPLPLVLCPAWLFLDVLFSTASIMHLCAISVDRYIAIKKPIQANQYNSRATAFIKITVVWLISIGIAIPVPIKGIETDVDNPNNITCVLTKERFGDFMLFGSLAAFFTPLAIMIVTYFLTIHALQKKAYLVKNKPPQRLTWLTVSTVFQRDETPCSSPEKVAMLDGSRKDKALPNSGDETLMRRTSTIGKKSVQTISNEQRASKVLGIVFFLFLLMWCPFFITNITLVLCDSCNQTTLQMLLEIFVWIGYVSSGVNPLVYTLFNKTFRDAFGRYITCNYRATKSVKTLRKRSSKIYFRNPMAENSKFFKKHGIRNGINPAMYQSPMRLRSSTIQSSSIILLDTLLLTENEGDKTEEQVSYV
Compound,AC50 [1],AC50 (Cannabinoid receptor 1),AC50 [2],AC50 [3],AC50 (Adenosine receptor A3),AC50 [4],AC50 [5],AC50 [6],AC50 [7],AC50 [8]
[H]/N=C(/N)c1ccc(NCc2nc3cc(C(=O)N(CCC(=O)O)c4ccccn4)ccc3n2C)cc1 [DABIGATRAN],> 30 µM,> 30 µM,> 30 µM,> 30 µM,> 30 µM,> 30 µM,> 30 µM,> 30 µM,> 30 µM,> 30 µM
O=C(C[S+]([O-])C(c1ccccc1)c1ccccc1)NO (stereo not given),> 30 µM,> 30 µM,9.4 µM,> 30 µM,> 30 µM,> 30 µM,> 30 µM,> 30 µM,> 30 µM,> 30 µM
CCCCCCCCOc1ccccc1C(=O)Nc1ccc(C(=O)OCC[N+](C)(CC)CC)cc1 [OTILONIUM BROMIDE],,19 µM,4.4 µM,> 30 µM,5.3 µM,8.2 µM,12 µM,3.1 µM,17 µM,> 1 µM
CN[C@@H](C)[C@H](O)c1ccccc1 [EPHEDRINE],> 10 µM,> 30 µM,> 10 µM,> 10 µM,> 30 µM,> 10 µM,> 10 µM,> 10 µM,> 30 µM,> 30 µM
TOCOFERSOLAN,> 30 µM,> 30 µM,> 30 µM,> 30 µM,> 30 µM,> 30 µM,> 30 µM,> 30 µM,> 30 µM,> 30 µM
CCCCCCCCCCCC[N+](C)(C)CCOc1ccccc1 [DOMIPHEN],,17 µM,2.5 µM,> 30 µM,10 µM,4.2 µM,> 30 µM,11 µM,> 30 µM,> 10 µM
C=C1CC[C@@]2(O)[C@H]3Cc4ccc(O)c5c4[C@@]2(CCN3CC2CC2)[C@H]1O5,> 30 µM,> 30 µM,> 30 µM,> 30 µM,> 30 µM,> 30 µM,> 30 µM,> 30 µM,> 30 µM,> 30 µM
COc1ccc2cccc(CCNC(C)=O)c2c1 [AGOMELATINE],> 30 µM,> 30 µM,> 10 µM,> 10 µM,> 30 µM,> 10 µM,> 30 µM,2.07 µM,> 30 µM,> 30 µM
O=C1NCCN1CCN1CCC(c2cn(-c3ccc(F)cc3)c3ccc(Cl)cc23)CC1 [SERTINDOLE],,20 µM,1.7 µM,> 30 µM,16 µM,,> 30 µM,0.6 µM,> 30 µM,> 30 µM
NC(=O)C[S+]([O-])C(c1ccccc1)c1ccccc1 (stereo not given) [MODAFINIL],> 10 µM,> 30 µM,,> 10 µM,13.4 µM,> 10 µM,> 10 µM,> 10 µM,> 30 µM,> 30 µM
